Results as given in ChEMBL document CHEMBL5715954, “Silencing c-Myc translation as a therapeutic strategy through targeting PI3Kδ and CK1ε in hematological malignancies” (Blood, 2017).

Key:
Set-up in all cases: scale not given: the % may be the effect or the level left
[1] = molecular target: Mitogen-activated protein kinase kinase kinase 11 (Homo sapiens) (UniProt Q16584); experiment: Inhibition of human MLK3 assessed as enzyme activity at 1 uM using myelin basic protein as substrate preincubated for 20 mins followed by [gamma-33P]-ATP addition and measured after 120 mins by radiometric Hot-SpotSM Kinase assay relative to control
Sequence of Mitogen-activated protein kinase kinase kinase 11 (Homo sapiens) (Q16584 whole entry, looked up): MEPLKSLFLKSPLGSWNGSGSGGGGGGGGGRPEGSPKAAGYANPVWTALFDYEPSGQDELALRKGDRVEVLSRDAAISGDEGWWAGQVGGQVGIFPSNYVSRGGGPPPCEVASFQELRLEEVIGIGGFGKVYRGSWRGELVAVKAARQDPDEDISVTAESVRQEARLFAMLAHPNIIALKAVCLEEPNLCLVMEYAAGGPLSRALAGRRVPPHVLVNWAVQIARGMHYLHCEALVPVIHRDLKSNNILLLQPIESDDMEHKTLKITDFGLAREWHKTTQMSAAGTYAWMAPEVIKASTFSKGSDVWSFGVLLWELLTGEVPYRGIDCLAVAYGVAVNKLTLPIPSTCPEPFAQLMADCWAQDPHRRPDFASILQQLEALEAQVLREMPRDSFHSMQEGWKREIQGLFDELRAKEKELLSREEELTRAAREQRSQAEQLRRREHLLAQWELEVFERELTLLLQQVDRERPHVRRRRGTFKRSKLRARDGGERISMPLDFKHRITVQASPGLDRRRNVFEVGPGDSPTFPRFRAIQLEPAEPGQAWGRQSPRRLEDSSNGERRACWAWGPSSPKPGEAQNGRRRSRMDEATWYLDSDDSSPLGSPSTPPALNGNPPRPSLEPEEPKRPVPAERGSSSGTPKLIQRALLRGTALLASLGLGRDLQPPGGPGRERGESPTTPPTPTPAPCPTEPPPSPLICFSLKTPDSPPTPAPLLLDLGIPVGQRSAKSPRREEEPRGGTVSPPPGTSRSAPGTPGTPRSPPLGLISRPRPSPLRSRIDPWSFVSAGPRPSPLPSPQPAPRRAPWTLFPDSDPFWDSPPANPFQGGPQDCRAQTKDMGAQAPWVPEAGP

[2] = molecular target: T1, Mitogen-activated protein kinase kinase kinase 19 (Homo sapiens) (UniProt Q56UN5); experiment: Inhibition of human YSK4/MAP3K19 assessed as enzyme activity at 1 uM using myelin basic protein as substrate preincubated for 20 mins followed by [gamma-33P]-ATP addition and measured after 120 mins by radiometric Hot-SpotSM Kinase assay relative to control
T1 sequence (whole entry): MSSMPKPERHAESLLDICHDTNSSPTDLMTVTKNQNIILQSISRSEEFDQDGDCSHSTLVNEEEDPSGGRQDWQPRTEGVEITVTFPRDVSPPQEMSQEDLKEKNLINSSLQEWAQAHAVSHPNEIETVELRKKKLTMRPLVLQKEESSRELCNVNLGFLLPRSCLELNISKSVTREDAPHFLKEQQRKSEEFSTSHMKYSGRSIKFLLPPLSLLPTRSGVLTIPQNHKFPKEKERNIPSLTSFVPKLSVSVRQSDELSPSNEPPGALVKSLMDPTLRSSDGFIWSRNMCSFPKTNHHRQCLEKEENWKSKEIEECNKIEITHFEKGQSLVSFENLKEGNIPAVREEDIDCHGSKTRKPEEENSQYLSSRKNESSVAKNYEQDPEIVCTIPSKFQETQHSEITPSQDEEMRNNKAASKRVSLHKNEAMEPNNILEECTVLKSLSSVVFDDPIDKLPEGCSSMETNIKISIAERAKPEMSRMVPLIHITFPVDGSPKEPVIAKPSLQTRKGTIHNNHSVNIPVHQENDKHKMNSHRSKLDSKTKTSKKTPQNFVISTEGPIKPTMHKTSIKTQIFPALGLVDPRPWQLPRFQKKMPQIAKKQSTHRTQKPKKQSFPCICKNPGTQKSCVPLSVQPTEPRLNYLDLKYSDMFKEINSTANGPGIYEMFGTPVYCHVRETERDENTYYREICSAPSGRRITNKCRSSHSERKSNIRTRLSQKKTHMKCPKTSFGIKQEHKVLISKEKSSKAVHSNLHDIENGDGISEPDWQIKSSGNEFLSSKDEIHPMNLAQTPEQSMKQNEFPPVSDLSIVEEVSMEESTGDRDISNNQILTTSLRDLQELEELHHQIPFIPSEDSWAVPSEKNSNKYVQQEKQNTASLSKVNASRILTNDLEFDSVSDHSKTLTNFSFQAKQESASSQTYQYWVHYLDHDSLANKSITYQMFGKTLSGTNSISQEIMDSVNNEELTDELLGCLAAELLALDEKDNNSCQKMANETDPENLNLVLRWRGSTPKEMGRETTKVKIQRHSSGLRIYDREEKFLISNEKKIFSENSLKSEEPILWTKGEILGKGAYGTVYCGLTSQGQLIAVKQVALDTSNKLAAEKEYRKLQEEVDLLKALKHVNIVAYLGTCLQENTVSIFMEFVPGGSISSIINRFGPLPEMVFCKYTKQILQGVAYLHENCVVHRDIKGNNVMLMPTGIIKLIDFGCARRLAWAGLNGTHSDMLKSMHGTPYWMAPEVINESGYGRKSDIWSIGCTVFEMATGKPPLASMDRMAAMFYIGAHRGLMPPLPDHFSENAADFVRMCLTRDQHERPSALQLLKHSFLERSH

[3] = molecular target: Dual specificity protein kinase CLK2 (Homo sapiens) (UniProt P49760); experiment: Inhibition of human CLK2 assessed as enzyme activity at 1 uM using myelin basic protein as substrate preincubated for 20 mins followed by [gamma-33P]-ATP addition and measured after 120 mins by radiometric Hot-SpotSM Kinase assay relative to control
Sequence of Dual specificity protein kinase CLK2 (Homo sapiens) (P49760 whole entry, looked up): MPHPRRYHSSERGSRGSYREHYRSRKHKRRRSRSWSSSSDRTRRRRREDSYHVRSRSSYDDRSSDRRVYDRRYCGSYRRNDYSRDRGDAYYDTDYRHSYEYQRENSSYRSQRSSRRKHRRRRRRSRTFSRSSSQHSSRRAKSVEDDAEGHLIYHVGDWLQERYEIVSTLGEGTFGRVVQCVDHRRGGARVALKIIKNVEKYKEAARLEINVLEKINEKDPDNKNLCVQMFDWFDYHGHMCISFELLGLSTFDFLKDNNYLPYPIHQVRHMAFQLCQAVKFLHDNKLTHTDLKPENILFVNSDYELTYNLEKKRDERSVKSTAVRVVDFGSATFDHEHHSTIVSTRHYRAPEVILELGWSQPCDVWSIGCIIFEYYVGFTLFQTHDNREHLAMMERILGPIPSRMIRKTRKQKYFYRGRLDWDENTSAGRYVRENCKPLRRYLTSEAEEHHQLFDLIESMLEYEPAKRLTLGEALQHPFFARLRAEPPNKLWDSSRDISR

[4] = molecular target: Serine/threonine-protein kinase SIK2 (Homo sapiens) (UniProt Q9H0K1); experiment: Inhibition of human SIK2 assessed as enzyme activity at 1 uM using AMARAASAAALARRR as substrate preincubated for 20 mins followed by [gamma-33P]-ATP addition and measured after 120 mins by radiometric Hot-SpotSM Kinase assay relative to control
Sequence of Serine/threonine-protein kinase SIK2 (Homo sapiens) (Q9H0K1 whole entry, looked up): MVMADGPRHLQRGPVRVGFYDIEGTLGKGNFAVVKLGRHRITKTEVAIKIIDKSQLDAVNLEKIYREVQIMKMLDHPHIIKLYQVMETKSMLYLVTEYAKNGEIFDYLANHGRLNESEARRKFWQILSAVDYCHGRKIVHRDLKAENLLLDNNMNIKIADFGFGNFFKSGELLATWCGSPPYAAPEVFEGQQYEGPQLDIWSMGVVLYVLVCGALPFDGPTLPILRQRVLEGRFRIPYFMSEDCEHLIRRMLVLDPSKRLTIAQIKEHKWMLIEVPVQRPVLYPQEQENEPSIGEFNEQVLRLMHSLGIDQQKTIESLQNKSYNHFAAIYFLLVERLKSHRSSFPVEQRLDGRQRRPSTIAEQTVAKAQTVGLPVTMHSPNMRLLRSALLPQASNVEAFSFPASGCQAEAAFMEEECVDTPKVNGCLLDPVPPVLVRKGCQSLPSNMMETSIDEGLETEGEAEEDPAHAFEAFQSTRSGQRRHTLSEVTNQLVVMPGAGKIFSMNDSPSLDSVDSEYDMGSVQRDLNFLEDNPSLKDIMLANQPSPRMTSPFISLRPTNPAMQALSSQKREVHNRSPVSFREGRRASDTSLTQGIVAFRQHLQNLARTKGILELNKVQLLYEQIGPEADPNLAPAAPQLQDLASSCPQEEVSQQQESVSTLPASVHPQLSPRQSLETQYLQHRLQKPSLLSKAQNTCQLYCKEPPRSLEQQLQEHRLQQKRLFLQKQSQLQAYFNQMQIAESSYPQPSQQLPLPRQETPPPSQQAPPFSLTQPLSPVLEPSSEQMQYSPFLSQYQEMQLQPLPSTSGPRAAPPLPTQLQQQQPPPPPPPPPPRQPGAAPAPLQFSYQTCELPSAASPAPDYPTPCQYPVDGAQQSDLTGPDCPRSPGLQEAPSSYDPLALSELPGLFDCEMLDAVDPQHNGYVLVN

[5] = molecular target: T2, Ephrin type-B receptor 3 (Homo sapiens) (UniProt P54753); experiment: Inhibition of human EPHB3 assessed as enzyme activity at 1 uM using poly[Glu:Tyr] (4:1) as substrate preincubated for 20 mins followed by [gamma-33P]-ATP addition and measured after 120 mins by radiometric Hot-SpotSM Kinase assay relative to control
T2 sequence (whole entry): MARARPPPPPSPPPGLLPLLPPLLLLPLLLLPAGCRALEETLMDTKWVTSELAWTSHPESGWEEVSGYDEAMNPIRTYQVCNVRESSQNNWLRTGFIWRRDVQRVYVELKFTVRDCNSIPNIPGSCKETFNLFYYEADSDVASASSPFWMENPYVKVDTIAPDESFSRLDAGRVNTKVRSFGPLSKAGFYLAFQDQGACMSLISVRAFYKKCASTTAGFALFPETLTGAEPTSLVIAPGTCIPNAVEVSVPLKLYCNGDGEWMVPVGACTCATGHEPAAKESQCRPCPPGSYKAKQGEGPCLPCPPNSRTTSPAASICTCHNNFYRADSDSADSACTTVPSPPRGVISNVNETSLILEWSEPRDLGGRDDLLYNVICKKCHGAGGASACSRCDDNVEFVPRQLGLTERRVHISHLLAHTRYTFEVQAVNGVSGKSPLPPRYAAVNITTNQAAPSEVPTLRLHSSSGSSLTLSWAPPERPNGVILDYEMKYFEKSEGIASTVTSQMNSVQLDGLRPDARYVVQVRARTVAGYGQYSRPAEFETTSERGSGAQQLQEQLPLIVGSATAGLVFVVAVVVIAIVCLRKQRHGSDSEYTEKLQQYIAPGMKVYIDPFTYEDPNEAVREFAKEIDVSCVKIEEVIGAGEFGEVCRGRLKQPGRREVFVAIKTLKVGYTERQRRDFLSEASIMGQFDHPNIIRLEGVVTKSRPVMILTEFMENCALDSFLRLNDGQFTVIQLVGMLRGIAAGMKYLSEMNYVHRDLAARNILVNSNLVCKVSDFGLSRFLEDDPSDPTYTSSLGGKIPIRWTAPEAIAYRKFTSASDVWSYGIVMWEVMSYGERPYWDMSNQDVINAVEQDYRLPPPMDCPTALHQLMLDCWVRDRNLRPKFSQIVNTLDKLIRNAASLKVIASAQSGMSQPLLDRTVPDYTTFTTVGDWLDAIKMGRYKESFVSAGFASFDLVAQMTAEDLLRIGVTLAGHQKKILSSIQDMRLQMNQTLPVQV

[6] = molecular target: Protein kinase C alpha type (Homo sapiens) (UniProt P17252); experiment: Inhibition of human PKCa assessed as enzyme activity at 1 uM using ERMRPRKRQGSVRRRV as substrate preincubated for 20 mins followed by [gamma-33P]-ATP addition and measured after 120 mins by radiometric Hot-SpotSM Kinase assay relative to control

Compound	Activity [1] [%]	Activity [2] [%]	Activity [3] [%]	Activity [4] [%]	Activity [5] [%]	Activity [6] [%]
C[C@H](Nc1ncnc2nc[nH]c12)c1cc2cccc(Cl)c2c(=O)n1-c1ccccc1	75.1	91.6	95.3	94	89.7	116
CC[C@H](Nc1ncnc2[nH]cnc12)c1nc2cccc(F)c2c(=O)n1-c1ccccc1	79.8	90.5	96.9	98.5	98.3	103
CC(C)Oc1ccc(-c2nn([C@@H](C)c3oc4ccc(F)cc4c(=O)c3-c3cccc(F)c3)c3ncnc(N)c23)cc1F [UMBRALISIB]	80.9	92.4	99.5	95.4	97.4	114
